For 59 compounds, RP-LC retention time results are on record in the METLIN SMRT retention time set (Domingo-Almenara et al. 2019).

This series in a line: gradient 5% acetonitrile 3 min, to 50% in 2 min, to 85% in 15 min, held 3 min, 100 µL/min. The note with it: column: Zorbax Extend-C18 2.1 x 50 mm; eluents: water / acetonitrile, 0.1% formic acid. The method in brief:
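Retention time was recorded from adduct peaks, which were picked computationally and each inspected manually. Pure standards ran in mixtures of ~100 molecules on HPLC coupled to a quadrupole time-of-flight mass spectrometer, in positive and negative ionization mode, through a Zorbax Extend-C18 column (2.1 × 50 mm, 1.8 μm) at 100 μL/min. Eluents were water and acetonitrile, each with 0.1% formic acid.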
As to `CCOc1ccc(-c2cn3ccn(-c4cccc(F)c4)c(=O)c3n2)cc1`, the RP-LC retention time came out at 846 s.

With `Cc1ccc(NC(=O)C2CCN(S(C)(=O)=O)c3cc(Cl)ccc3O2)c(C)c1` (centres undefined), the RP-LC retention time is 992 s. Consider `CC1(C(=O)NCc2ccc(F)cc2)CN(S(=O)(=O)c2ccccc2)CC(=O)N1C1CC1` (centres undefined), for which the RP-LC retention time stood at 816 s.

`Cc1nc(C(=O)NC2CCCCC2)c(C)o1` gave an RP-LC retention time of 767 s. The result for `CCCN1C(=O)COc2ccc(-c3noc(-c4ccc(OC)cc4C)n3)cc21` reads 1320 s; that for `Cc1nnc(N2CCCC(C(=O)N3CCc4ccccc43)C2)c2nn(-c3ccc(Cl)cc3)c(C)c12` (centres undefined), 850 s; that for `CCOC(=O)C1C(=O)C=C(c2cccc(NS(C)(=O)=O)c2)CC1c1ccccc1F` (centres undefined), 840 s. `CSc1ccc(-c2nc3cnccn3c2Nc2cccc(C(=O)NCCN(C)C)c2)cc1` gave an RP-LC retention time of 605 s. In turn, `COc1ccc(NC(=O)c2cn3c(n2)CCCC3)cc1Cl` returned an RP-LC retention time of 609 s. The result for `CC(C)CCn1nc2c(S(=O)(=O)N3CCCCC3)cccn2c1=O` reads 906 s; that for `CC(=O)c1ccc(NC(=O)c2cnc(-c3ccc(F)cc3)nc2-c2ccncc2)cc1`, 837 s. For `Cc1noc(CC2CCOC3(CCN(C(=O)C4(c5ccccc5)CC4)CC3)C2)n1` (centres undefined), the RP-LC retention time was determined as 820 s.

For the compound `O=C(NCCC1=CCCCC1)c1csc(Nc2ncccn2)n1`, the RP-LC retention time is 797 s. For the compound `O=C(COc1ccc(Cl)cc1)N1CCN(c2nc(CN3CCOCC3)cs2)CC1`, the RP-LC retention time was determined as 643 s. As for `O=C(CSc1cc(N2CCCCC2)ncn1)Nc1cccc(C(F)(F)F)c1`, the RP-LC retention time amounted to 1020 s. For `CCCN1C(=O)COc2ccc(-c3noc(-c4cccc(Br)c4)n3)cc21`, the RP-LC retention time is 1400 s. The result for `CCSc1nnc(NC(=O)Cc2cc(-c3ccc4c(c3)CC(C)O4)on2)s1` (centres undefined) reads 895 s.

Turning to `CCOc1ccccc1NC(=O)c1sc(N2CCCC2=O)nc1CC`, the RP-LC retention time turned out to be 1020 s.

`COc1ccc(CNC2=NCCNC23CCN(S(=O)(=O)c2cc(C)ccc2C)CC3)cc1` gave an RP-LC retention time of 754 s. In turn, `CC(C)c1ccc(NC(=O)C2CCN(S(=O)(=O)c3cn(C)cn3)CC2)cc1` displayed an RP-LC retention time of 797 s.

With `COC(=O)c1c(NCc2ccc(F)cc2F)c2cccc(Cl)c2[nH]c1=O`, the RP-LC retention time worked out at 822 s. The compound `Cc1cc(Nc2ncccc2S(N)(=O)=O)ccc1Cl` showed an RP-LC retention time of 908 s.

In turn, `COc1ccc(CN2CCN(c3cnn4c(C5CC5)nnc4c3)CC2)cc1` had an RP-LC retention time of 544 s. The compound `COc1cc(NC(=O)N2CCN(c3cc(C)nc(N4CCCC4)n3)CC2)cc(OC)c1OC` came in with an RP-LC retention time of 634 s.

Compound `COc1ccc(OCC(=O)NS(=O)(=O)c2ccccc2)cc1` came in with an RP-LC retention time of 745 s.

Compound `O=C(CC1CCCC1)N1[C@H]2CC[C@@H]1c1cnc(-c3ccc(F)cc3)nc1C2` came in with an RP-LC retention time of 1060 s. In the case of `COc1cc(C2CC(=O)c3cnc(N4CCN(C)CC4)nc3C2)cc(OC)c1OC` (centres undefined), the RP-LC retention time worked out at 628 s. Compound `CCc1nc(-c2csc(S(=O)(=O)N3CCCC(C(=O)Nc4ccc(C#N)cc4)C3)c2)no1` (centres undefined) yielded an RP-LC retention time of 1020 s. In turn, `COCCC1CCN(C(=O)Cc2c(C)noc2C)CC1` showed an RP-LC retention time of 636 s. `COc1ccc(-n2ncc3c(=O)n(Cc4nc(-c5ccc(C)c(C)c5)no4)cnc32)cc1` came in with an RP-LC retention time of 1080 s. Compound `COc1ccc(N2CCN(C(=O)C34CCC(C)(C(=O)C3)C4(C)C)CC2)cc1` (centres undefined) gave an RP-LC retention time of 784 s.

On to `COc1ccc(-c2csc(NC(=O)C3(c4ccccc4)CCCC3)n2)cc1OC`, for which the RP-LC retention time came out at 1170 s. Consider `CCOC(=O)C1=C(CN(C)c2ccccc2)NC(=O)NC1c1ccc(C)cc1` (centres undefined), for which the RP-LC retention time worked out at 1020 s.

In turn, `CCOC(=O)c1c(C)n(C)c2ccccc12` displayed an RP-LC retention time of 887 s. To `Cn1nccc1-c1cccc(-c2noc(-c3cc(F)cc(F)c3)n2)c1` belongs 1220 s; to `Cc1ccc(-n2nc(C)c3sc(N4CCCC(C(=O)NCc5ccc(F)cc5Cl)C4)nc32)cc1` (centres undefined), 1220 s. To `Cc1noc(C)c1Cc1c(C(=O)NCCn2c(C)cnc2C)noc1C` belongs 601 s. `O=C(Cc1cccc(C(F)(F)F)c1)N1CCc2nc[nH]c2C1` had an RP-LC retention time of 612 s. For `Cc1ccc(C)c(N2CCN(C(=O)c3ccc4c(c3)CCN4C(=O)C3CC3)CC2)c1`, the RP-LC retention time is 1070 s.

Compound `CCC(=O)Nc1ccc(-n2cnc(C(=O)N3CCC4(CC3)OCCO4)c2)nc1` yielded an RP-LC retention time of 616 s. Compound `Cc1ccc(NC(=O)Cn2c(=O)n(-c3ccccc3)c3ncccc32)c(C)c1` came in with an RP-LC retention time of 848 s. The result for `COC(=O)c1ccccc1NC(=O)CSc1ccc(N2CCCC(C(=O)NC3CC3)C2)nn1` (centres undefined) reads 683 s; that for `COc1ccc(OC)c2sc(NC(=O)C3CCCCN3S(C)(=O)=O)nc12` (centres undefined), 793 s. To `CCc1nc2c(=O)n(CC(=O)N3CCCCCC3)nc(C)c2s1` belongs 706 s; to `CC(C)NC(=O)CN1C(=O)COc2ccc(C(=O)N3CCCCCC3)cc21`, 680 s. Compound `O=C(NCc1cc(F)ccc1F)C1CCN(c2cncnc2N2CCCC2)CC1` registered an RP-LC retention time of 653 s. `O=C(Cc1csc2nc(-c3ccccc3)cn12)Nc1cccc(Br)c1`: the RP-LC retention time stood at 906 s.

Consider `CC(=O)N1CCC(C(=O)N2CCCCCCN(C)C(=O)[C@@H]3CCC[C@@H]32)CC1`, for which the RP-LC retention time was 658 s.

`O=C(NCCn1ncccc1=O)c1cccc(C(F)(F)F)c1` registered an RP-LC retention time of 646 s.

On to `O=C(c1cnn2c(-c3ccc4c(c3)OCO4)ccnc12)N1CCN(c2ccccc2)CC1`, for which the RP-LC retention time is 864 s.

As for `COc1ccccc1CCC(=O)Nc1cc(-c2cccnc2)no1`, the RP-LC retention time is 781 s. Turning to `Cc1cccc(NC(=O)C2CCCN(S(=O)(=O)c3cc(-c4noc(C5CCC5)n4)cs3)C2)c1` (centres undefined), the RP-LC retention time worked out at 1130 s. As to `COCCNC(=O)C1CCN(c2cnc(N3CCCC3)nc2)CC1`, the RP-LC retention time came to 580 s. In turn, `O=c1ccc(-c2ccc3c(c2)OCO3)nn1Cc1nc(-c2ccc3c(c2)OCO3)no1` came in with an RP-LC retention time of 934 s.

`Cc1ccc(NC(=O)Cn2cnc3nc4c(cc3c2=O)CCCC4)c(C)c1` gave an RP-LC retention time of 734 s. With `CCOC(=O)C1CCN(C(c2ccc(C)cc2)c2c(O)cc(C)n(CC)c2=O)CC1` (centres undefined), the RP-LC retention time is 725 s. To `Cc1ccccc1NS(=O)(=O)c1cc2n(c1)CCCN(C)C2=O` belongs 666 s; to `COc1cc(OC)cc(C(=O)N2CCN(c3cc(-c4cccs4)[nH]n3)CC2)c1`, 794 s. In turn, `O=C(NC1CCCC1)c1c2c(nc3ccccc13)CCCC2` returned an RP-LC retention time of 625 s.
